The target in series [1] is T1, wild type EGFR tyrosine kinase (EGFR^wt) (Homo sapiens, UniProt P00533).
T1 construct: purchased PTM Bio; Co., Ltd
Description: In vitro EGFR^wt-TK assay (ELISA). It is filed as biochemical. Particulars: mean ± SD of three replicates; for inhibition at 1 µM: read-out: EGFR^wt-TK inhibition rate; for inhibition at 1 µM / EGFR^wt-TK inhibition rate: 1 μM. Background: ELISA stands for enzyme-linked immunosorbent assay.

The next series relates to A549 cells. Put plainly: Cytotoxicity evaluation (MTT assay), A549. It is filed as cell-based. Conditions: Homo sapiens, mean ± SD of three replicates.
The test system of another series is PC-3 cells. Description: Cytotoxicity evaluation (MTT assay), PC-3. It is filed as cell-based. Particulars: Homo sapiens, mean ± SD of three replicates. In general terms: Formazan colour is commonly taken as a measure of viable cells.
Another series relates to HepG2 cells. Description: Cytotoxicity evaluation (MTT assay), HepG2. Type of series: cell-based. Particulars: Homo sapiens, mean ± SD of three replicates.
The next series concerns L02 cells. Description: Cytotoxicity evaluation (MTT assay), L02 normal cells. Particulars: Homo sapiens, L02, read-out: IC50 L02.

T1 sequence (P00533 25-1210): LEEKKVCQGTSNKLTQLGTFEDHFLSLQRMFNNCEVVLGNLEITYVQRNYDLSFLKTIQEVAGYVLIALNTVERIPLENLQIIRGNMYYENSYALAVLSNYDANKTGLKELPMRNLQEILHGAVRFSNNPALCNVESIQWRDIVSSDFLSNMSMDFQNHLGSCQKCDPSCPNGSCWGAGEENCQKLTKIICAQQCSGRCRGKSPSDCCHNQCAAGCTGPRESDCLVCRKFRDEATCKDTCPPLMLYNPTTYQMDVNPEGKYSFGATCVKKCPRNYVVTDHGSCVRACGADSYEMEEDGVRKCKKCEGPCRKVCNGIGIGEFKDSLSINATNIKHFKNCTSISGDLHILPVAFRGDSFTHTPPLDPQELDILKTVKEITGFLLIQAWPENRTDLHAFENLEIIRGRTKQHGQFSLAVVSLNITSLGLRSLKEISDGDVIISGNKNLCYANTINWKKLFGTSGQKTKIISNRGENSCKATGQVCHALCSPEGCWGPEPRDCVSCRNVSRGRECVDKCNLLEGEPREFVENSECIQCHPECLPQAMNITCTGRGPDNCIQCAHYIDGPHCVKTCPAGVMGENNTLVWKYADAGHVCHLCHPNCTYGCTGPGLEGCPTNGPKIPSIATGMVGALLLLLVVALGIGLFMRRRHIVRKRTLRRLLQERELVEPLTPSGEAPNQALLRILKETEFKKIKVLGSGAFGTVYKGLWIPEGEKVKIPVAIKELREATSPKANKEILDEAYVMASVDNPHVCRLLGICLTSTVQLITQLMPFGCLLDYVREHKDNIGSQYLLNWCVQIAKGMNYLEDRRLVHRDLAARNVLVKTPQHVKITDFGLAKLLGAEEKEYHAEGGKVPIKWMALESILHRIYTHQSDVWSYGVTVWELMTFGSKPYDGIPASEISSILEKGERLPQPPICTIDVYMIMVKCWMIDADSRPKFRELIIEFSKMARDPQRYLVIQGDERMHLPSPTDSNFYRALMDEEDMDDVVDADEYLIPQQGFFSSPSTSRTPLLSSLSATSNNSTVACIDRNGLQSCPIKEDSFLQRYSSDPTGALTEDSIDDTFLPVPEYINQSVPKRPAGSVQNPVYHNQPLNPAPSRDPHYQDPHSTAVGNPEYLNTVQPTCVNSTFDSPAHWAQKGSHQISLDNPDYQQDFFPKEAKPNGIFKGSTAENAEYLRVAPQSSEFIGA
Description for L02 cells: Three tumour cells with high expression of EGFR^wt were used to test the antitumor activity of the compounds including, A549 (Human non-small-cell lung cancer cell line) cells, PC-3 (Human prostate cancer cell line) cells, and HepG2 (Human hepatocellular carcinomas cell line) cells. They were all purchased from the Shanghai Cell Bank of the Chinese Academy of Sciences. L02 (normal human liver cell line) cells were also used to evaluate the cytotoxicity. […] The IC50 values were calculated from the dose − response curve under Graph-Pad Prism.

Usually inhibition stands for the percentage by which the read-out fell short of the control. As a reminder, the IC50 is the midpoint of a concentration-inhibition curve. In general, melting point refers to the temperature, or range, at which the solid turns liquid. In the case of `CNC(=O)c1ccsc1Nc1nc(Nc2ccc(Nc3c(NCCNC(=O)C(C)C)c(=O)c3=O)cc2)ncc1C(F)(F)F` [8b, 2-(2-{4-[2-(2-Isobutyrylamino-ethylamino)-3,4-dioxo-cyclobut-1-enylamino]-phenylamino}-5-trifluoromethyl-pyrimidin-4-ylamino)-thiophene-3-carboxylic acid methylamide], the melting point is over 250 °C. The inhibition at 1 µM in series [1] is 7.92 ± 0.54%. Moreover, the IC50 in the series on A549 cells is over 20 µM. In addition, the IC50 in the series on PC-3 cells is over 20 µM. Further, the IC50 in the series with HepG2 cells is over 20 µM. Also, the IC50 in the series on L02 cells is over 40 µM.

Take `CNC(=O)c1ccsc1Nc1nc(Nc2ccc(Nc3c(NCCO)c(=O)c3=O)cc2)ncc1C(F)(F)F` [6c, 2–(2-{4-[2-(2-Hydroxy-ethylamino)-3,4-dioxo-cyclobut-1-enylamino]-phenylamino}-5-trifluoromethyl-pyrimidin-4-ylamino)-thiophene-3-carboxylic acid methylamide]: the melting point is over 250 °C. Besides, the inhibition at 1 µM in series [1] amounted to 16.6 ± 0.21%. Also, the IC50 with A549 cells was over 20 µM. The IC50 in the series with PC-3 cells is over 20 µM. The compound further yielded an IC50 with HepG2 cells of over 20 µM. Also, the IC50 in the series with L02 cells was over 40 µM.

With `CNC(=O)c1ccsc1Nc1nc(Nc2ccc(Nc3c(NCCNC(=O)C=Cc4ccccc4)c(=O)c3=O)cc2)ncc1C(F)(F)F` [8e, 2-[2-(4-{3,4-Dioxo-2-[2-(3-phenyl-acryloylamino)-ethylamino]-cyclobut-1-enylamino}-phenylamino)-5-trifluoromethyl-pyrimidin-4-ylamino]-thiophene-3-carboxylic acid methylamide], the melting point is over 250 °C. In addition, in series [1], the inhibition at 1 µM worked out at 53.1 ± 1.75% and the IC50 turned out to be 0.64 ± 0.1 µM. Also, 3.15 ± 0.44 µM corresponded to half-maximal inhibition with A549 cells (IC50). The same compound displayed an IC50 in the series with PC-3 cells of 4.12 ± 0.65 µM. Moreover, the IC50 in the series with HepG2 cells was 4.31 ± 0.39 µM. Moreover, the IC50 with L02 cells is over 40 µM.

`CCCNc1c(Nc2ccc(Nc3ncc(C(F)(F)F)c(Nc4sccc4C(=O)NC)n3)cc2)c(=O)c1=O` [6a, 2-{2-[4-(3,4-Dioxo-2-propylamino-cyclobut-1-enylamino)-phenylamino]-5-trifluoromethyl-pyrimidin-4-ylamino}-thiophene-3-carboxylic acid methylamide] displayed a melting point of over 250 °C. In addition, in series [1], the inhibition at 1 µM stood at 15.3 ± 0.48%. In the series with A549 cells, the concentration for half-maximal inhibition (IC50) was over 20 µM. The compound also displayed a 50% inhibitory concentration (IC50) in the series on PC-3 cells of over 20 µM. The compound also registered an IC50 with HepG2 cells of over 20 µM. Also, the IC50 with L02 cells was over 40 µM.

`CNC(=O)c1ccsc1Nc1nc(Nc2ccc(NC(=O)c3cccc(C(F)(F)F)c3)cc2)ncc1C(F)(F)F` [4f, 2-{5-Trifluoromethyl-2-[4-(3-trifluoromethyl-benzoylamino)-phenylamino]-pyrimidin-4-ylamino}-thiophene-3-carboxylic acid methylamide] registered a melting point of over 250 °C. Besides, the inhibition at 1 µM in series [1] amounted to 30.8 ± 1.09%. Moreover, the IC50 with A549 cells was determined as 6.14 ± 0.78 µM. In addition, the IC50 in the series with PC-3 cells turned out to be 8.51 ± 0.64 µM. It took 8.36 ± 0.49 µM to reach half-maximal inhibition in the series with HepG2 cells (IC50). For the same compound, the IC50 in the series on L02 cells is over 40 µM.

In the case of `CNC(=O)c1ccsc1Nc1nc(Nc2ccc(Nc3c(NC4CCCC4)c(=O)c3=O)cc2)ncc1C(F)(F)F` [6e, 2-{2-[4-(2-Cyclopentylamino-3,4-dioxo-cyclobut-1-enylamino)-phenylamino]-5-trifluoromethyl-pyrimidin-4-ylamino}-thiophene-3-carboxylic acid methylamide], the melting point was over 250 °C. In series [1], the “EGFR^wt-TK inhibition rate” value is on record as 53.17 ± 3.05%, the inhibition at 1 µM is over 50% and the IC50 was found to be 0.74 ± 0.1 µM. In the series with A549 cells, this compound showed an IC50 of 7.14 ± 0.92 µM. The IC50 in the series with PC-3 cells came to 9.24 ± 0.86 µM. In the series with HepG2 cells, 9 ± 0.78 µM corresponded to half-maximal inhibition (IC50). The IC50 with L02 cells is over 40 µM.

`CNC(=O)c1ccsc1Nc1nc(Nc2ccc(Nc3c(NCCNC(=O)C=Cc4ccc(F)cc4)c(=O)c3=O)cc2)ncc1C(F)(F)F` [8g, 2-{2-[4–(2-{2-[3–(4-Fluoro-phenyl)-acryloylamino]-ethylamino}-3,4-dioxo-cyclobut-1-enylamino)-phenylamino]-5-trifluoromethyl-pyrimidin-4-ylamino}-thiophene-3-carboxylic acid methylamide] had a melting point of over 250 °C. In series [1], the inhibition at 1 µM stood at 52.1 ± 1.93% and the IC50 turned out to be 0.59 ± 0.15 µM. Besides, the IC50 in the series on A549 cells came to 3.14 ± 0.92 µM. Besides, the IC50 with PC-3 cells was 6.08 ± 0.94 µM. In the series on HepG2 cells, the IC50 is 5.33 ± 0.58 µM. Besides, in the series with L02 cells, the IC50 is over 40 µM.

`CNC(=O)c1ccsc1Nc1nc(Nc2ccc(Nc3c(NCCNC(=O)C=Cc4cccc(F)c4)c(=O)c3=O)cc2)ncc1C(F)(F)F` [8f, 2-{2-[4–(2-{2-[3-(3-Fluoro-phenyl)-acryloylamino]-ethylamino}-3,4-dioxo-cyclobut-1-enylamino)-phenylamino]-5-trifluoromethyl-pyrimidin-4-ylamino}-thiophene-3-carboxylic acid methylamide]: the melting point was over 250 °C. In series [1], the inhibition at 1 µM was 58.9 ± 1.92% and the IC50 amounted to 0.57 ± 0.29 µM. Inhibition with A549 cells was half-maximal at 2.17 ± 0.54 µM (IC50). The compound also returned an IC50 in the series with PC-3 cells of 3.48 ± 0.22 µM. The compound also had an IC50 in the series with HepG2 cells of 3.09 ± 0.66 µM. In the series with L02 cells, the IC50 was over 40 µM.

In the case of `CCC(=O)NCCNc1c(Nc2ccc(Nc3ncc(C(F)(F)F)c(Nc4sccc4C(=O)NC)n3)cc2)c(=O)c1=O` [8a, 2-(2-{4-[3,4-Dioxo-2-(2-propionylamino-ethylamino)-cyclobut-1-enylamino]-phenylamino}-5-trifluoromethyl-pyrimidin-4-ylamino)-thiophene-3-carboxylic acid methylamide], the melting point is over 250 °C. Besides, in series [1], the inhibition at 1 µM was 6.86 ± 0.11%. In addition, the concentration for half-maximal inhibition (IC50) in the series on A549 cells is over 20 µM. The IC50 with PC-3 cells is over 20 µM. Further, the IC50 in the series with HepG2 cells was over 20 µM. For the same compound, the IC50 with L02 cells is over 40 µM.

Compound `CNC(=O)c1ccsc1Nc1nc(Nc2ccc(NC(=O)c3ccc(F)cc3)cc2)ncc1C(F)(F)F` [4d, 2-{2-[4-(4-Fluoro-benzoylamino)-phenylamino]-5-trifluoromethyl-pyrimidin-4-ylamino}-thiophene-3-carboxylic acid methylamide] showed a melting point of 233.5 to 235.3 °C. In addition, in series [1], the inhibition at 1 µM was determined as 7.59 ± 0.25%. The IC50 with A549 cells is over 20 µM. The IC50 with PC-3 cells is over 20 µM. In the series with HepG2 cells, this compound showed an IC50 of over 20 µM. Besides, the IC50 in the series on L02 cells is over 40 µM.

The compound `CNC(=O)c1ccsc1Nc1nc(Nc2ccc(Nc3c(NC4CCN(C)CC4)c(=O)c3=O)cc2)ncc1C(F)(F)F` [6h, 2-(2-{4-[2-(1-Methyl-piperidin-4-ylamino)-3,4-dioxo-cyclobut-1-enylamino]-phenylamino}-5-trifluoromethyl-pyrimidin-4-ylamino)-thiophene-3-carboxylic acid methylamide] returned a melting point of over 250 °C. The inhibition at 1 µM in series [1] worked out at 10.6 ± 0.93%. Moreover, the IC50 with A549 cells is over 20 µM. For the same compound, the IC50 in the series on PC-3 cells was over 20 µM. In the series with HepG2 cells, this compound gave an IC50 of over 20 µM. In addition, the IC50 in the series on L02 cells was over 40 µM.

As to `CNC(=O)c1ccsc1Nc1nc(Nc2ccc(NC(=O)c3ccccc3F)cc2)ncc1C(F)(F)F` [4b, 2-{2-[4-(2-Fluoro-benzoylamino)-phenylamino]-5-trifluoromethyl-pyrimidin-4-ylamino}-thiophene-3-carboxylic acid methylamide], the melting point was in the range of 224.8 to 226.3 °C. Moreover, in series [1], the “EGFR^wt-TK inhibition rate” value was 52.08 ± 1.93%, the inhibition at 1 µM is over 50% and 0.89 ± 0.12 µM corresponded to half-maximal inhibition (IC50). Also, it took 4.33 ± 0.59 µM to reach half-maximal inhibition in the series with A549 cells (IC50). Moreover, the IC50 with PC-3 cells is 7.81 ± 0.53 µM. In addition, the IC50 with HepG2 cells worked out at 7.62 ± 0.46 µM. For the same compound, the 50% inhibitory concentration (IC50) in the series with L02 cells is over 40 µM.

In turn, `CNC(=O)c1ccsc1Nc1nc(Nc2ccc(Nc3c(NC(C)C)c(=O)c3=O)cc2)ncc1C(F)(F)F` [6d, 2-{2-[4-(2-Isopropylamino-3,4-dioxo-cyclobut-1-enylamino)-phenylamino]-5-trifluoromethyl-pyrimidin-4-ylamino}-thiophene-3-carboxylic acid methylamide] showed a melting point of over 250 °C. Besides, the inhibition at 1 µM in series [1] worked out at 29.1 ± 1.03%. The compound further displayed an IC50 with A549 cells of 10.1 ± 1.96 µM. Besides, the IC50 with PC-3 cells was over 20 µM. In the series with HepG2 cells, the IC50 worked out at 14.1 ± 1.28 µM. Moreover, the IC50 in the series with L02 cells was over 40 µM.

For `CNC(=O)c1ccsc1Nc1nc(Nc2ccc(Nc3c(NCCNC(=O)C4CCCCC4)c(=O)c3=O)cc2)ncc1C(F)(F)F` [8d, 2-[2-(4-{2-[2-(Cyclohexanecarbonyl-amino)-ethylamino]-3,4-dioxo-cyclobut-1-enylamino}-phenylamino)-5-trifluoromethyl-pyrimidin-4-ylamino]-thiophene-3-carboxylic acid methylamide], the melting point was over 250 °C. Besides, in series [1], the inhibition at 1 µM was determined as 29 ± 1.55%. Further, inhibition in the series with A549 cells was half-maximal at 6.14 ± 0.72 µM (IC50). Moreover, the IC50 in the series with PC-3 cells was 8.35 ± 0.74 µM. Besides, in the series with HepG2 cells, the IC50 amounted to 8.28 ± 0.69 µM. Further, the IC50 in the series with L02 cells is over 40 µM.

With `CNC(=O)c1ccsc1Nc1nc(Nc2ccc(Nc3c(NC4CCCCC4)c(=O)c3=O)cc2)ncc1C(F)(F)F` [6f, 2-{2-[4-(2-Cyclohexylamino-3,4-dioxo-cyclobut-1-enylamino)-phenylamino]-5-trifluoromethyl-pyrimidin-4-ylamino}-thiophene-3-carboxylic acid methylamide], the melting point was over 250 °C. Also, the inhibition at 1 µM in series [1] was 34.1 ± 1.29%. Besides, the IC50 in the series with A549 cells turned out to be 18.1 ± 2.45 µM. Moreover, the IC50 with PC-3 cells is over 20 µM. In the series on HepG2 cells, this compound registered an IC50 of over 20 µM. Also, the IC50 with L02 cells is over 40 µM.
